Reference: US8022057B2, “MAPK/ERK kinase inhibitors” (Takeda Pharmaceutical Company Limited, priority 2007, dated 2011)

Molecular target: T1, MEK1 (Homo sapiens, UniProt Q02750, DEL33-52/S218E/S222D)
T1 construct: 6-histidine tag (pFastbac leader) (N); made in house; host or cells: Spodoptera frugiperda Sf9 (baculovirus) for MEK1; E. coli for GST-ERK1
Assay: MEK1 inhibition, fluorescence polarization (IMAP) assay with ERK1 and FI-Erktide
Format: biochemical
Conditions: 1 nM MEK1, 25 nM ERK1, 400 μM ATP, 500 nM FI-Erktide, 22 min at room temperature; read-out: IC50 of Exemplified Compounds Against MEK1
Protocol: The deletion from residues 32-51, and the two mutations, S218E and S222D, may be obtained by quick change PCR.
Reaction product is determined quantitatively by fluorescent polarization using progressive IMAP beads from Molecular Devices.
The reaction mixture may then be incubated at room temperature for 22 min, and quenched and developed by addition of 20 μl of 1:200 dilution of progressive IMAP beads (Molecular Devices) in 80% buffer A, 20% buffer B and 0.003% Tween 20. Fluorescence polarization of the resulting reaction mixtures may be measured after a 1 hour incubation at room temperature.
IC50 values may be calculated by non-linear curve fitting of the compound concentrations and fluorescence polarization signal to the standard IC50 equation.

T1 sequence (Q02750 with tags, fused parts or gaps DEL33-52/S218E/S222D): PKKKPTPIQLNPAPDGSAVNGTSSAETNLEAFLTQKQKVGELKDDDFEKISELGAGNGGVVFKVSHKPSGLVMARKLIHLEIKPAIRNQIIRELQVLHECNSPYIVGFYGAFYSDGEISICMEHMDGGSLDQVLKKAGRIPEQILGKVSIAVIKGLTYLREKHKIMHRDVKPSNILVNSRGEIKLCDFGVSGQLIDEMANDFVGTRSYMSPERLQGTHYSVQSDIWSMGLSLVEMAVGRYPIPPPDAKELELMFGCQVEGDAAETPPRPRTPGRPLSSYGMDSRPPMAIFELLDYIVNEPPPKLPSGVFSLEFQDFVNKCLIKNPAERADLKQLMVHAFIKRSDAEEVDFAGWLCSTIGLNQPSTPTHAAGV

| Compound | IC50 [nM] |
| --- | --- |
| O=C(O)c1c(Nc2ccc(I)cc2F)c(F)c(=O)n2c1CCC2 [Example 1, 6-Fluoro-7-(2-fluoro-4-iodophenylamino)-5-oxo-1,2,3,5-tetrahydroindolizine-8-carboxylic acid] | ≤ 100 |
| O=C(NOC[C@H](O)CO)c1c(Nc2ccc(I)cc2F)c(F)c(=O)n2c1CCC2 [Example 2, (R)—N-(2,3-Dihydroxypropoxy)-6-fluoro-7-(2-fluoro-4-iodophenylamino)-5-oxo-1,2,3,5-tetrahydroindolizine-8-carboxamide] | ≤ 100 |
| O=C(NOC(CO)CO)c1c(Nc2ccc(I)cc2F)c(F)c(=O)n2c1CCC2 [Example 3, N-(1,3-Dihydroxypropan-2-yloxy)-6-fluoro-7-(2-fluoro-4-iodophenylamino)-5-oxo-1,2,3,5-tetrahydroindolizine-8-carboxamide] | ≤ 100 |
| O=C(NOCCO)c1c(Nc2ccc(I)cc2F)c(F)c(=O)n2c1CCC2 [Example 4, 6-Fluoro-7-(2-fluoro-4-iodophenylamino)-N-(2-hydroxyethoxy)-5-oxo-1,2,3,5-tetrahydroindolizine-8-carboxamide] | ≤ 100 |
| O=C(NOC[C@@H](O)CO)c1c(Nc2ccc(I)cc2F)c(F)c(=O)n2c1CCC2 [Example 5, (S)—N-(2,3-Dihydroxypropoxy)-6-fluoro-7-(2-fluoro-4-iodophenylamino)-5-oxo-1,2,3,5-tetrahydroindolizine-8-carboxamide] | ≤ 100 |
| O=C(NOCCO)c1c(Nc2ccc(I)cc2F)c(F)c(=O)n2c1CCCC2 [Example 7, 7-Fluoro-8-(2-fluoro-4-iodophenylamino)-N-(2-hydroxyethoxy)-6-oxo-2,3,4,6-tetrahydro-1H-quinolizine-9-carboxamide] | ≤ 100 |
| Cc1c(Nc2ccc(I)cc2F)c(C(=O)NOCCO)c2n(c1=O)CCC2 [Example 8, 7-(2-Fluoro-4-iodophenylamino)-N-(2-hydroxyethoxy)-6-methyl-5-oxo-1,2,3,5-tetrahydroindolizine-8-carboxamide] | ≤ 100 |
| O=C(NOCCO)c1c(Nc2ccc(I)cc2F)c(Cl)c(=O)n2c1CCC2 [Example 10, 6-Chloro-7-(2-fluoro-4-iodophenylamino)-N-(2-hydroxyethoxy)-5-oxo-1,2,3,5-tetrahydroindolizine-8-carboxamide] | ≤ 100 |
| C#Cc1ccc(Nc2c(C(=O)NOCCO)c3n(c(=O)c2F)CCC3)c(F)c1 [Example 11, 7-(4-Ethynyl-2-fluorophenylamino)-6-fluoro-N-(2-hydroxyethoxy)-5-oxo-1,2,3,5-tetrahydroindolizine-8-carboxamide] | ≤ 100 |
